“Also recorded” adds a separate entry of the source.
Tests used:
Assay type in all cases: cell-based, Human
[1] = test system: MDM2 promoter; experiment: MDM2Luciferase stable U2OS cell line
Description: (§1) Cells were co-transfected with 1 μg of the plasmid of interest and 4 μg of pCDNA3, which contains the resistance gene against neomycin for 6 hours. They were washed once with PBS and cultured in medium supplemented with neomycin. Twenty four hours later they were split and plated at different dilutions (from 1:50 to 1:200) in medium containing neomycin. The medium was changed every three days for two weeks until colonies formed. Colonies were picked and sub-cultured into a 24-well plate. After proliferation of each colony, cells were characterized either by luciferase assays or by western blotting according to the cell line.
(§2) Twenty four hours after transfection, the cells were lysed in Reporter Lysis buffer supplied by Promega and assayed using the Luciferase assay kit (Promega), measuring luciferase activity with the Autolumat Plus (Berthold technologies). The fold activation of a particular reporter was determined by the activity of the transfected plasmid divided by the activity of vector alone. The fold increase of activity in response to drug treatment was obtained by the activity in the presence of drug divided by the activity of the untreated sample.
(§3) Pig3Luciferase, Pig3-delFLuciferase (similar to the Pig3 promoter but without the p53 binding site), p21Luciferase, MDM2Luciferase reporters were used to generate four cell lines in U2OS cells.

[2] = test system: proapoptotic promoter Pig3; experiment: Pig3Luciferase reporter transactivation, transient transfection in U2OS cells; conditions: treated 24 hours
Description: (§4) Adherent cells were grown to a confluence of 70-80% in fresh medium. Cells were plated 24 hours prior to the transfection procedure. The medium on the dishes was replaced with 3 ml of fresh medium 15-30 minutes before the transfection. 2×HBS buffer (280 mM NaCl, 10 mM KCL, 1.4 mM Na2HPO4.2H2O, 12 mM glucose, 39 mM HEPES, adjusted to a pH 6.9-7.3) was diluted in sterile water to a concentration of 1× in a final volume of 300 μl. The required amount of DNA was added using sterile Gilson tips and mixed thoroughly. To form the precipitate, 12.5 μl of 2.5 M CaCl2 was added to the transfection mix and left at room temperature for 12-15 minutes. Six hours later dishes were washed with medium without serum once before adding 3 ml of fresh medium supplemented with 10% serum until further analysis of cells.
as §2
Some of the drugs commonly used in cancer therapy are known to stimulate p53 transactivation activity. To test their effect on a proapoptotic promoter specifically transactivated by p53, U2OS and MCF7 cells (both wild type p53) were transiently transfected with the proapoptotic reporter Pig3Luciferase and then treated for 24 hours with eight different compounds (FIGS. 1A and 1B).
Si—RNA cloned into pSuper plasmid (Brummelkamp et al., Science. 296(5567):550-3, 2002) was transiently transfected with the Pig3 reporter into U2OS cells treated with doxorubicin or cisplatin (FIG. 3A).

[3] = test system: Pig3 promoter; experiment: Pig3Luciferase stable U2OS cell line
Description: as §1, §2, §3

[4] = test system: ASPP1 promoter; experiment: ASPP1 promoter luciferase stable U2OS cell line
Description: as §1, §2
(§5) ASPP might respond to drugs in many ways in cells. To start investigating this, stable cell lines expressing luciferase under the control of the ASPP1 or ASPP2 promoters were created in U2OS cells. For each cell line, two clones were tested with the six drugs used previously. […] At the same time, these cell lines were used to titrate drugs.

[5] = test system: ASPP2 promoter; experiment: ASPP2 promoter luciferase stable U2OS cell line
Description: as §1, §2, §5

[6] = test system: p21 promoter; experiment: p21Luciferase stable U2OS cell line
Description: as §1, §2, §3

[7] = test system: proapoptotic promoter Pig3; experiment: Pig3Luciferase reporter transactivation, transient transfection in MCF7 cells; conditions: treated 24 hours
Description: as §4
as §2, with “sample. […]” for “sample.”

[8] = test system: deleted Pig3 promoter; experiment: Pig3-delFLuciferase stable U2OS cell line (no p53 binding site)
Description: as §1, §2, §3

[9] = drug titration, regardless of the concentration

Structure (SMILES) | ability of p53 to transactivate the Pig3 promoter [2] | MDM2 promoter activity [1] | Pig3 promoter activity went up by [2] [fold] | Pig3-Luciferase activity [3] | ASPP1Luciferase reporter activity [4, 9] | p21 promoter activity [6] | ability of p53 to transactivate the Pig3 promoter [7] | ASPP2 promoter activity ([5]; stable U2OS, clone 4) | further results
O=c1[nH]cc(F)c(=O)[nH]1 [5-Fluorouracil] | able to induce such induction |  |  |  |  |  |  |  | effect on the MDM2 promoter [1]: 7 fold; Pig3 promoter activity induced by [3]: three; concentration inducing the maximum ASPP1Luciferase reporter activity ([4]; drug titration): 40 µg/mL; ASPP1 promoter activity ([4]; stable U2OS, two clones, after 24 hours, listed as 5-fluorouracil): activates; ASPP2 promoter activation ([5]; clone 4, titration, at 40 μg/ml): 3 fold
N.N.[Cl][Pt][Cl] [cisplatin] | did not have the same efficiency as doxorubicin | did not affect | 2.9 | did not affect | little effect | did not affect |  |  | ASPP2 promoter activity ([5]; clone 4, drug titration): no effect
COc1cccc2c1C(=O)c1c(O)c3c(c(O)c1C2=O)C[C@@](O)(C(C)=O)C[C@@H]3O[C@H]1C[C@H](N)[C@H](O)[C@H](C)O1 [daunorubicin] | strongly increased | not p21 or MDM2 | 34.7 | specifically stimulated | little effect | not p21 or MDM2 | strongly increased | stimulated | ASPP2 promoter activity increase ([5]; clone 4, titration, at 150 ng/ml): 4 fold
COc1cccc2c1C(=O)c1c(O)c3c(c(O)c1C2=O)C[C@@](O)(C(=O)CO)C[C@@H]3O[C@H]1C[C@H](N)[C@H](O)[C@H](C)O1 [doxorubicin] | strongly increased | not p21 or MDM2 |  | respond; also recorded: specifically stimulated |  | not p21 or MDM2 | strongly increased | stimulated | activity of the deleted Pig3 promoter [8]: did not affect; ASPP1Luciferase reporter activity ([4]; drug titration, at 2 μM): 2 fold; toxicity in ASPP1Luciferase cells ([4]; drug titration, concentration reached 3 μM): toxic; ASPP2 promoter activity ([5]; FIGS. 4A and 4B (both clones)): activates; ASPP2 promoter activity, increase over the control ([5]; clone 4, titration, at 2 μM (highest effect)): 10 fold; ASPP2 promoter activity ([5]; stable U2OS, clone 3): had an effect
COc1cc([C@@H]2c3cc4c(cc3[C@@H](O[C@@H]3O[C@@H]5CO[C@@H](C)O[C@H]5[C@H](O)[C@H]3O)[C@H]3COC(=O)[C@H]23)OCO4)cc(OC)c1O [etoposide] |  | did not affect |  | did not affect |  | did not affect |  |  | 
CO[C@@]12[C@H](COC(N)=O)C3=C(C(=O)C(C)=C(N)C3=O)N1C[C@@H]1N[C@@H]12 [mitomycin C] |  | did not affect |  | did not affect |  | did not affect |  |  | 

— patent publication US20050260629A1, “Differential drug sensitivity” (Ludwig Institute for Cancer Research, priority 2004, published 2005)
